# From patent US11230538B2, “Herbicides” (SYNGENTA PARTICIPATIONS AG, priority 2016, dated 2022)
# How the values were obtained:
# Format in all cases: in vivo
# Lolium perenne (LOLPE) = assay: B1 Pre-emergence herbicidal activity; parameters: key to Pre-emergence herbicidal activity, LOLPE (damage score 0-5): 5=total damage to plant; 0=no damage to plant; settings: pre-emergence application, rate 1000 g/ha, evaluated after 13 days
# Procedure: (§1) Seeds of a variety of test species were sown in standard soil in pots: Triticum aestivium (TRZAW), Avena fatua (AVEFA), Alopecurus myosuroides (ALOMY), Echinochloa crus-galli (ECHCG), Lolium perenne (LOLPE), Zea Mays (ZEAMX), Abutilon theophrasti (ABUTH), Amaranthus retroflexus (AMARE) and Setaria fabenr (SETFA). After cultivation for one day (pre-emergence) under controlled conditions in a glasshouse (at 24/16° C., day/night; 14 hours light; 65% humidity), the plants were sprayed with an aqueous spray solution derived from the formulation of the technical active ingredient in acetone I water (50:50) solution containing 0.5% Tween 20 (polyoxyethelyene sorbitan monolaurate, CAS RN 9005-64-5). The test plants were then grown in a glasshouse under controlled conditions (at 24/16° C., day/night; 14 hours light; 65% humidity) and watered twice daily. After 13 days, the test was evaluated (5=total damage to plant; 0=no damage to plant).
# Setaria fabenr (SETFA) = assay: B1 Pre-emergence herbicidal activity; parameters: key to Pre-emergence herbicidal activity, SETFA (damage score 0-5): 5=total damage to plant; 0=no damage to plant; settings: pre-emergence application, rate 1000 g/ha, evaluated after 13 days
# Procedure: as §1
# [1] = tested on: Echinochloa crus-galli (ECHCG); assay: B1 Pre-emergence herbicidal activity; settings: pre-emergence application, rate 1000 g/ha, evaluated after 13 days
# Procedure: as §1
# [2] = tested on: Alopecurus myosuroides (ALOMY); assay: B1 Pre-emergence herbicidal activity; parameters: key: 5=total damage to plant; 0=no damage to plant; settings: pre-emergence application, rate 1000 g/ha, evaluated after 13 days
# Procedure: as §1
# [3] = tested on: Triticum aestivium (TRZAW); assay: B1 Pre-emergence herbicidal activity; parameters: key: 5=total damage to plant; 0=no damage to plant; settings: pre-emergence application, rate 1000 g/ha, evaluated after 13 days
# Procedure: as §1
# Avena fatua (AVEFA) = assay: B1 Pre-emergence herbicidal activity; parameters: key: 5=total damage to plant; 0=no damage to plant; settings: pre-emergence application, rate 1000 g/ha, evaluated after 13 days
# Procedure: as §1
# [4] = tested on: Echinochloa crus-galli (ECHCG); assay: B2 Post-emergence herbicidal activity; settings: post-emergence application, rate 1000 g/ha, evaluated after 13 days
# Procedure: (§2) Seeds of a variety of test species were sown in standard soil in pots: Triticum aestivium (TRZAW), Avena fatua (AVEFA), Alopecurus myosuroides (ALOMY), Echinochloa crus-galli (ECHCG), Lolium perenne (LOLPE), Zea Mays (ZEAMX), Abutilon theophrasti (ABUTH), Amaranthus retroflexus (AMARE) and Setaria fabenri (SETFA). After 8 days cultivation (post-emergence) under controlled conditions in a glasshouse (at 24/16° C., day/night; 14 hours light; 65% humidity), the plants were sprayed with an aqueous spray solution derived from the formulation of the technical active ingredient in acetone I water (50:50) solution containing 0.5% Tween 20 (polyoxyethelyene sorbitan monolaurate, CAS RN 9005-64-5). The test plants were then grown in a glasshouse under controlled conditions (at 24/16° C., day/night; 14 hours light; 65% humidity) and watered twice daily. After 13 days, the test was evaluated (5=total damage to plant; 0=no damage to plant).
# [5] = tested on: Alopecurus myosuroides (ALOMY); assay: B2 Post-emergence herbicidal activity; parameters: key: 5=total damage to plant; 0=no damage to plant; settings: post-emergence application, rate 1000 g/ha, evaluated after 13 days
# Procedure: as §2
# [6] = tested on: Triticum aestivium (TRZAW); assay: B2 Post-emergence herbicidal activity; parameters: key: 5=total damage to plant; 0=no damage to plant; settings: post-emergence application, rate 1000 g/ha, evaluated after 13 days
# Procedure: as §2
# Setaria fabenri (SETFA) = assay: B2 Post-emergence herbicidal activity; parameters: key: 5=total damage to plant; 0=no damage to plant; settings: post-emergence application, rate 1000 g/ha, evaluated after 13 days
# Procedure: as §2
SMILES,"Pre-emergence herbicidal activity, LOLPE (damage score 0-5) (Lolium perenne (LOLPE))","Pre-emergence herbicidal activity, SETFA (damage score 0-5) (Setaria fabenr (SETFA))","Pre-emergence herbicidal activity, ECHCG (damage score 0-5) [1]","Pre-emergence herbicidal activity, ALOMY (damage score 0-5) [2]","Pre-emergence herbicidal activity, TRAZW (damage score 0-5) [3]","Pre-emergence herbicidal activity, AVEFA (damage score 0-5) (Avena fatua (AVEFA))","Post-emergence herbicidal activity, ECHCG (damage score 0-5) [4]","Post-emergence herbicidal activity, ALOMY (damage score 0-5) [5]","Post-emergence herbicidal activity, TRAZW (damage score 0-5) [6]","Post-emergence herbicidal activity, SETFA (damage score 0-5) (Setaria fabenri (SETFA))"
CCC(=O)N(CC(=O)N(C)C)c1ccc(-c2cncc(F)c2)nc1C(F)(F)F [Compound C71],1,5,4,0,1,1,4,0,0,5
CCC(=O)N(Cc1cnc(Cl)s1)c1ccc(-c2cncc(F)c2)nc1C(F)(F)F [Compound C102],0,4,2,0,0,1,2,0,0,2
CCC(=O)N(CC=C(C)C)c1ccc(-c2cncc(F)c2)nc1C(F)(F)F [Compound C73],0,5,4,0,0,2,4,0,0,5
CC(C)C(=O)N(COCC(C)(C)C)c1ccc(-c2cncc(F)c2)nc1C(F)(F)F [Compound C89],0,4,3,0,0,1,4,0,0,4
CCC(=O)N(c1ccc(-c2cncc(F)c2)nc1C(F)(F)F)C(C)C [Compound C100],1,5,3,0,0,1,4,0,0,5
CCC(=O)N(Cc1ccc(Cl)cc1)c1ccc(-c2cncc(F)c2)nc1C(F)(F)F [Compound C101],0,1,1,0,0,1,2,0,0,2
CCC(=O)N(CCSC)c1ccc(-c2cncc(F)c2)nc1C(F)(F)F [Compound C98],1,3,1,0,0,0,1,0,0,0
O=C(c1ccccc1)N(Cc1cnc(Cl)s1)c1ccc(-c2cncc(F)c2)nc1C(F)(F)F [Compound C78],0,2,1,0,0,0,1,0,0,3
CCC(=O)N(CC(C)C)c1ccc(-c2cncc(F)c2)nc1C(F)(F)F [Compound C97],0,3,1,0,0,0,2,0,0,3
CCC(=O)N(COCC(F)(F)F)c1ccc(-c2cncc(F)c2)nc1C(F)(F)F [Compound C72],0,4,1,0,0,0,2,0,0,3
